The values that follow come from US20230009608A1, “GRK2 INHIBITORS AND USES THEREOF” (Cygnal Therapeutics, Inc., priority 2020, published 2023).

One may read the IC50 as the concentration at which inhibition is half-maximal.

The assay has as its target T1, GRK2 (Homo sapiens, UniProt P25098).
T1 construct: purchased SignalChem A14-10G
T1 sequence (P25098 1-689): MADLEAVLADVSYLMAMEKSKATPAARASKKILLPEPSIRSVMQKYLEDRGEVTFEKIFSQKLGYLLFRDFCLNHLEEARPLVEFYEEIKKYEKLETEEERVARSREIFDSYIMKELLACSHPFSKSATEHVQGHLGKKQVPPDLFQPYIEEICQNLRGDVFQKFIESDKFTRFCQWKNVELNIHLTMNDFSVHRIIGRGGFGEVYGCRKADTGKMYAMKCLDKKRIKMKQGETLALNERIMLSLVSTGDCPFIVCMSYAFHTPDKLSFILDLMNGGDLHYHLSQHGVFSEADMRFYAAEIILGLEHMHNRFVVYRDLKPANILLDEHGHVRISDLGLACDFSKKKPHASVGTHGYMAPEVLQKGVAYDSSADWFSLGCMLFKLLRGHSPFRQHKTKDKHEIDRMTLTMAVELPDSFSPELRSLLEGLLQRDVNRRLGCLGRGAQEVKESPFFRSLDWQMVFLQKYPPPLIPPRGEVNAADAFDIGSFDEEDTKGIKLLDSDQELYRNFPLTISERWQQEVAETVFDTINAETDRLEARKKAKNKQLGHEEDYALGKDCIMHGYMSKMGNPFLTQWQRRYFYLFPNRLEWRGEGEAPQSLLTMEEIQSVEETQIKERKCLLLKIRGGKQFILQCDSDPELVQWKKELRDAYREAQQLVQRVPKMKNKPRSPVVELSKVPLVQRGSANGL
Nature of the assay: ADPGlo GRK2 Inhibition Assay (Example 8). In kind it is biochemical. The note with it: ADPGlo GRK2 enzyme assay; read-out: A: Enzymatic GRK2: IC50 (nM) (Example 8). As for the experimental part: HTS was performed using 1 μM compound.
Compounds were dissolved in 100% DMSO, serially diluted tree-fold from 100 μM concentration to 46 nM and transferred (50 nL) into assay ready plate.
Materials: GRK2 was purchased from SignalChem (Cat #A14-10G, Lot #X^645-3). Substrate GRKtide was from SignalChem (Cat #G46-58, Lot #R339-6). ADP-Glo Kinase Assay from Promega (Cat #V9102). Assay buffer consisted of 25 mMv HEPES (pH7.5), 10 mMv MgCl2, 0.01% Tween-20, 1 mM DDT. 384-well white plates were from Greiner […] (Item #784075).
HTS protocol: Take 384 well plate with 50 nL of compound in columns 3-22/DMSO solution 1-2,23-24. Add 2.5 μL assay buffer to columns 23 and 24 using Thermo Scientific Multidrop Combi Dispenser. Add 2.5 μL of 2× enzyme solution (15 nM in 1× assay buffer) using Thermo Scientific Multidrop Combi Reagent Dispenser to all columns except of 23 and 24. Incubate for 15 minutes. Fill plate with 2.5 μL of 2× substrate mix (20 μM ATP and 0.6 mg/nt GRKtide in Ix assay buffer) using Thermo Scientific Multidrop Combi Reagent Dispenser. Spin 15 seconds at 1000 rpm and incubate for 180 min at room temperature. Add 5 μL ADP-Glo reagent to all the wells. Spin 15 seconds at 1000 rpm and incubate for 40 min at room temperature. Add 10 μL Detection solution to all the wells. Incubate for 30 min at room temperature. Read plate in Luminescent modeon BMG PheraStar FSX (gain=3600).
Data Analysis: Data were analyzed in GraphPad Prism 8.0.2. Each HTS plate contains compounds in columns 3-22, controls (enzyme, no compound) in columns 1 and 2, and blanks (no enzyme) in columns 23 and 24. HTS percent inhibition was calculated for each compound from the signal in luminescence units and the mean of the plate controls and the mean of the plate blanks using the following equation: % Inhibition=100*(1−((signal-blank mean)/(control mean-blank mean))). At the final stage of data processing, we obtain dose-response curves, tables and SDF-files with the results of screening for each substance.

Where only a bound is given, the exact number is not on record here.

In the case of `CN1CC[C@H](NC(=O)c2cccc(NCc3nnc(-c4ccncn4)n3C)c2)c2ccccc21`, the IC50 turned out to be 85 nM.
Then `COC1COc2ccccc2C1NC(=O)c1cccc(NCc2nnc(-c3ccncn3)n2C)c1` (stereo not drawn), with 59.1 nM; and `CNS(=O)(=O)c1ccccc1CNC(=O)c1cccc(NCc2nnc(-c3ccncn3)n2C)c1`, with 62.5 nM.
Then `CNS(=O)(=O)Cc1ccccc1CNC(=O)c1cccc(NCc2nnc(-c3ccncn3)n2C)c1`, with 68.9 nM; and `CC(NC(=O)c1cccc(NCc2nnc(-c3ccncn3)n2C)c1)c1ccccc1NS(C)(=O)=O` (stereo not drawn), with 68 nM.
With `CN1CCN(c2ccccc2CNC(=O)c2cccc(NCc3nnc(-c4ccncn4)n3C)c2)CC1` the figure was 184 nM; with `Cn1c(CNc2cccc(C(=O)NCc3cc(F)ccc3N3CCOCC3)c2)nnc1-c1ccncn1`, 104 nM.
For the compound `Cc1ccc(CNC(=O)c2cccc(NCc3nnc(-c4ccncn4)n3C)c2)c(N2CCOCC2)c1`, the half-inhibitory concentration (IC50) came to 412 nM.
Then `Cn1c(CNc2cccc(C(=O)NCc3ccccc3S(=O)(=O)N3CCOCC3)c2)nnc1-c1ccncn1`, with 52.8 nM; and `Cn1c(CNc2cccc(C(=O)NCc3ccccc3S(=O)(=O)N3CCCCC3)c2)nnc1-c1ccncn1`, with 50.5 nM; and `Cn1c(CNc2cccc(C(=O)NCc3ccccc3CS(=O)(=O)N3CCCC3)c2)nnc1-c1ccncn1`, with 107 nM.
Then `Cn1c(CNc2cccc(C(=O)N[C@]3(c4ccccc4F)C[C@H](O)C3)c2)nnc1-c1ccncn1`, with 423 nM.
Then `Cc1nnc(O)c(C(C)NC(=O)c2cccc(NCc3nnc(-c4ccncn4)n3C)c2)c1C` (stereo not drawn), with 132 nM; and `Cc1ncc2c(n1)CCCC2NC(=O)c1cccc(NCc2nnc(-c3ccncn3)n2C)c1` (stereo not drawn), with 108 nM; and `Cn1c(CNc2cccc(C(=O)NCc3cc4c(nc3O)CCCC4)c2)nnc1-c1ccncn1`, with 192 nM.
With `Cn1c(CNc2cccc(C(=O)NCc3ncccc3-n3cccn3)c2)nnc1-c1ccncn1`, the IC50 amounted to 318 nM.
With `CCc1n[nH]c(=O)c(CNC(=O)c2cccc(NCc3nnc(-c4ccncn4)n3C)c2)c1CC` the figure was 504 nM.
Then `CN1CCN(c2ncccc2CNC(=O)c2cccc(NCc3nnc(-c4ccncn4)n3C)c2)CC1`, with 289 nM.
With `Cn1c(CNc2cccc(C(=O)NCc3ccccc3CN3CCC(O)C3)c2)nnc1-c1ccncn1` (stereo not drawn) the figure was 136 nM.
In the case of `Cn1c(CNc2cccc(C(=O)NCc3ccncc3OCC3CCOC3)c2)nnc1-c1ccncn1` (stereo not drawn), the IC50 was determined as 871 nM.
Then `CC(C)NS(=O)(=O)Cc1ccccc1CNC(=O)c1cccc(NCc2nnc(-c3ccncn3)n2C)c1`, with 69.8 nM; and `Cn1c(CNc2cccc(C(=O)NCc3c4c(n[nH]c3=O)CCCC4)c2)nnc1-c1ccncn1`, with 531 nM.
With `Cn1c(CNc2cccc(C(=O)NCc3nccnc3O)c2)nnc1-c1ccncn1` the figure was 728 nM; with `Cc1ncc(CNC(=O)c2cccc(NCc3nnc(-c4ccncn4)n3C)c2)c(O)n1`, 382 nM.
Then `Cn1c(CNc2cccc(C(=O)NCc3cc(Br)cnc3O)c2)nnc1-c1ccncn1`, with 103 nM; and `Cn1c(CNc2cccc(C(=O)NC3(c4ncccc4F)CC3)c2)nnc1-c1ccncn1`, with 104 nM.
For the compound `CN(C)c1cccnc1CNC(=O)c1cccc(NCc2nnc(-c3ccncn3)n2C)c1`, the IC50 was found to be 120 nM.
In the case of `CC(O)C(NC(=O)c1cccc(NCc2nnc(-c3ccncn3)n2C)c1)c1ccccc1F` (stereo not drawn), the IC50 was determined as 209 nM.
`Cn1c(CNc2cccc(C(=O)NCc3cccnc3-n3cccn3)c2)nnc1-c1ccncn1`: the IC50 was determined as 146 nM.
For `CCN1CCN(Cc2ccccc2CNC(=O)c2cccc(NCc3nnc(-c4ccncn4)n3C)c2)CC1`, the IC50 stood at 267 nM.
Then `Cn1c(CNc2cccc(C(=O)NC(CO)c3c(F)cccc3F)c2)nnc1-c1ccncn1` (stereo not drawn), with 146 nM.
With `Cn1c(CNc2cccc(C(=O)NCc3ccccc3-n3cccn3)c2)nnc1-c1ccncn1` the figure was 184 nM; with `Cn1c(CNc2cccc(C(=O)NCc3cccnc3N3CCOCC3)c2)nnc1-c1ccncn1`, 176 nM.
For the compound `Cn1c(CNc2cccc(C(=O)NCc3ccccc3OCCN3CCOCC3)c2)nnc1-c1ccncn1`, the IC50 worked out at 145 nM.
Then `Cc1ccccc1C(CN1CCOCC1)NC(=O)c1cccc(NCc2nnc(-c3ccncn3)n2C)c1` (stereo not drawn), with 505 nM.
With `COc1cccc2c1CCC2(CO)NC(=O)c1cccc(NCc2cnc(-c3ccncn3)n2C)c1` (stereo not drawn) the figure was 134 nM; with `Cn1c(CNc2cccc(C(=O)NC3(CO)CCc4ccccc43)c2)cnc1-c1ccncn1` (stereo not drawn), 929 nM.
Consider `Cn1c(CNc2cccc(C(=O)NC3(CO)CCCc4ccccc43)c2)nnc1-c1ccncn1` (stereo not drawn), for which the concentration for half-maximal inhibition (IC50) came out at 651 nM.
Regarding `Cn1c(CNc2cccc(C(=O)NC3(CO)CCOc4ccccc43)c2)nnc1-c1ccncn1` (stereo not drawn), the IC50 turned out to be 283 nM.
Turning to `CN1CCc2ccccc2C(NC(=O)c2cccc(NCc3nnc(-c4ccncn4)n3C)c2)C1=O` (stereo not drawn), the IC50 worked out at 253 nM.
With `Cn1c(CNc2cccc(C(=O)NC3CCCc4[nH]c(=O)ccc43)c2)nnc1-c1ccncn1` (stereo not drawn) the figure was 392 nM.
Take `Cn1c(CNc2cccc(C(=O)NC3CCCS(=O)(=O)c4ccccc43)c2)nnc1-c1ccncn1` (stereo not drawn): the half-maximal inhibitory concentration (IC50) amounted to 194 nM.
`Cn1c(CNc2cccc(C(=O)NC3CNCCc4ccccc43)c2)nnc1-c1ccncn1` (stereo not drawn): the IC50 was found to be 142 nM.
Turning to `CN1CCN(Cc2ccccc2CNC(=O)c2cccc(NCc3nnc(-c4ccncn4)n3C)c2)CC1`, the IC50 amounted to 159 nM.
As for `Cn1c(CNc2cccc(C(=O)NCc3cccnc3-n3cncn3)c2)nnc1-c1ccncn1`, the IC50 was found to be 119 nM.
For the compound `CNc1cccnc1CNC(=O)c1cccc(NCc2nnc(-c3ccncn3)n2C)c1`, the IC50 was 133 nM.
As for `Cn1c(CNc2cccc(C(=O)NCc3ncccc3S(C)(=O)=O)c2)nnc1-c1ccncn1`, the IC50 is 172 nM.
As for `COc1cccc(CCNC(=O)c2cccc(NCc3nnc(-c4ccncn4)n3C)c2)c1`, the IC50 is 340 nM.
Then `Cn1c(CNc2cccc(C(=O)NCc3cnn(C(C)(C)C)c3)c2)nnc1-c1ccncn1`, with 135 nM; and `C[C@H](NC(=O)c1cccc(NCc2nnc(-c3ccncn3)n2C)c1)c1ccc(Cl)cn1`, with 950 nM; and `COc1ccc([C@H](C)NC(=O)c2cccc(NCc3nnc(-c4ccncn4)n3C)c2)cc1`, with 593 nM.
Take `Cn1c(CNc2cccc(C(=O)NCc3ccc(CO)c(F)c3)c2)nnc1-c1ccncn1`: the IC50 was 103 nM.
With `Cn1c(CNc2cccc(C(=O)NCc3ccc(O)nc3)c2)nnc1-c1ccncn1` the figure was 203 nM.
With `Cn1c(CNc2cccc(C(=O)NCC3(c4ccccn4)CC3)c2)nnc1-c1ccncn1` the figure was 526 nM.
With `Cc1c[nH]c(=O)c(CNC(=O)c2cccc(NCc3nnc(-c4ccncn4)n3C)c2)c1` the figure was over 1000 nM.
For the compound `Cn1c(CNc2cccc(C(=O)NCc3cc4n(n3)CCC4)c2)nnc1-c1ccncn1`, the IC50 was over 1000 nM.
With `CCc1ccc(CNC(=O)c2cccc(NCc3nnc(-c4ccncn4)n3C)c2)nc1` the figure was 271 nM.
For the compound `Cn1c(CNc2cccc(C(=O)NCc3ccc(O)c(F)c3)c2)nnc1-c1ccncn1`, the IC50 amounted to 118 nM.
`Cc1cnc(CCNC(=O)c2cccc(NCc3nnc(-c4ccncn4)n3C)c2)c(C)c1`: the IC50 was determined as 432 nM.
Then `Cc1ccc(CNC(=O)c2cccc(NCc3nnc(-c4ccncn4)n3C)c2)nc1C`, with 182 nM.
For the compound `Cn1c(CNc2cccc(C(=O)NC3(c4ncc[nH]4)CC3)c2)nnc1-c1ccncn1`, the IC50 was 748 nM.
`COc1ccc(CNC(=O)c2cccc(NCc3nnc(-c4ccncn4)n3C)c2)cc1`: the IC50 was 913 nM.
With `Cn1c(CNc2cccc(C(=O)NC3CCn4nccc4C3)c2)nnc1-c1ccncn1` (stereo not drawn) the figure was 133 nM.
